Experimental data taken from patent publication US4073910A, “Method for treatment of diabetes” (Eisai Co., Ltd., priority 1975, dated 1978).
Where “and” joins values, the source holds several entries; their conditions need not be identical. Equal entries are not always repeated.

Tests used:
[1] = tested on: human diabetics (University Group Diabetes Program); conditions: oral administration, 8 years; cited from earlier work
blood-sugar amount = conditions: reported in 1955; cited from earlier work
[2] = Test of acute toxicity in mice; assay type: in vivo; conditions: mouse, in vivo
Method: (§1) Acute toxicity of Compound TN for males and females of mice rats were tested.

mice = test: Test of acute toxicity in mice; assay type: in vivo; conditions: mice, administerable maximum quantity
Method: as §1

rats [3] = test: Test of subacute and chronic toxicity in rats; assay type: in vivo; conditions: 100 to 1000 mg/Kg, three or six months
Solubility = assay type: physicochemical
pregnant mice = test: Test for malformation in pregnant mice; assay type: in vivo; conditions: oral, 100 to 1200 mg/Kg
pregnant rats = test: Test for malformation in pregnant rats; assay type: in vivo; conditions: oral, 100 to 1200 mg/Kg
[4] = Test of acute toxicity in rats; assay type: in vivo; conditions: rat, in vivo
Method: as §1

rats [5] = test: Test of acute toxicity in rats; assay type: in vivo; conditions: rats, administerable maximum quantity
Method: as §1

beagles = test: Test of subacute and chronic toxicity in beagles; assay type: in vivo; conditions: 100 mg/Kg, three or six months
alloxan diabetic rats = test: Effect on alloxan diabetes in rats (glycosuria, blood-sugar, urinary volume); assay type: in vivo, male wistar rats; conditions: for quantity of blood-sugar versus alloxan diabetic control group (in words): FIGS. 3 and 4, after 24 hours and 12 hours fasting; for effect for treatment of alloxan-diabetes (conclusion): alloxan diabetic rats; for blood-sugar level compared with diabetic control group (summary) / quantity of glycosuria compared with diabetic control group (summary) / urinary volume compared with diabetic control group (summary): summary of experiments; for restraining effect on quantity of glycosuria: Compound TA 80 mg/Kg, Compound NA 20 mg/Kg p.o. once a day for three weeks
Method: Experiments were carried out in six-week male wistar rats weighing approximately 180 g. […] After 10 days, animals displaying abnormal quantity of glycosuria were selected as "diabetic" animals. Abnormality was arbitrarily determined as quantity of glycosuria for 24 hours over 0.5 g. Total 32 alloxan diabetic rats were divided into four aliquot groups of every eight rats at random. […] These rats were placed in the metabolism cage equiped with solid foods and drinking water. The foods were removed after 9 hours, and urine was collected from said rats for 24 hours. In other experience, total 45 alloxan diabetic rats were divided into three groups of aliquot. […] These rats were placed in the metabolism cages equiped with drinking water, and urine was collected for 12 hours. Blood was also collected in each case from the carotid artery of the rats under anesthesia. for the urine and the plasma, the following biochemical tests were effected. (a) Quantity of the blood-sugar and the glycosuria: Anthrone method.

diabetics = test: Clinical data: blood sugar and ΔIRI/ΔBS in glucose tolerance test of diabetics; assay type: in vivo, human
Method: There were selected 15 diabetics, whose blood-sugar values are 111-150 mg;, respectively. The diabetics are 56.8 years old in average, ranging from 49 to 65 years old. They consist of 10 males and 5 females.
It was previously confirmed that the body weights of the diabetics are almost not varied during the continuation of dietetics.
There were orally administered a daily dose of six capsules for 8 weeks, each capsule containing 100 mg of the Compound TN.
Before and after the administration of the compound of the present invention, 50 g of sugar are orally administered to carry out glucose tolerance test. Quantities of blood-sugar were measured by means of Autoanalyzer with respect to the blood which was collected from the vein of the elbow. Further, quantities of insulin were measured, in accordance with Double antibody technic, before the glucose tolerance and after 30 minutes tolerance. From the following resulting quantities, value of ΔIRI/ΔBS was calculated.

[6] = FIG. 1, urine for 24 hours, 100 mg/Kg p.o. once a day for three weeks

Compound: [H]/N=C(/N)N/C(=N/[H])NCCc1ccccc1 [Phenformin]
- number of deaths due to heart-blood vessel disorder, compared with placebo group [1]: 2.5 times

Compound: CCCCNC(=O)NS(=O)(=O)c1ccc(N)cc1 [Carbutamide]
- effect for depressing a blood-sugar amount (blood-sugar amount): remarkable effect for depressing a blood-sugar amount

Compound: Cc1c(C)c2c(c(C)c1OC(=O)c1cccnc1)CCC(C)(CCCC(C)CCCC(C)CCCC(C)C)O2 (racemic) [Compound TN, dl-α-tocopherol nicotinate]
- LD50 ([2]; im): > 15000 mg/kg
- LD50 ([2]; ip): > 4000 mg/kg
- LD50 ([2]; iv): > 1000 mg/kg
- LD50 ([2]; po): > 20000 mg/kg
- LD50 ([2]; sc): > 20000 mg/kg
- deaths in acute toxicity test (mice): there is no case wherein the test animals died
- appearance of toxicity (hematological, blood biochemical, histological searches) (rats [3]): there could not be entirely recognized the appearance of the toxicity
- death case (rats [3]): There could not be found the death case
- restraint of weight (rats [3]): There could not be found the death case and the restraint of weight
- solubility in acetone, benzene, chloroform, ether and ethanol (Solubility; organic solvents): easily soluble
- solubility in water (Solubility; water): hardly soluble
- effects for mothers, foetuses and neonatal animals (pregnant mice): there could not be recognized any effects for mothers, foetuses and neonatal animals
- malformation (pregnant mice): no malformation could be entirely found
- effects for mothers, foetuses and neonatal animals (pregnant rats): there could not be recognized any effects for mothers, foetuses and neonatal animals
- malformation (pregnant rats): no malformation could be entirely found
- LD50 ([4]; im): > 10000 mg/kg
- LD50 ([4]; ip): > 2000 mg/kg
- LD50 ([4]; iv): > 250 mg/kg
- LD50 ([4]; po): > 15000 mg/kg
- LD50 ([4]; sc): > 15000 mg/kg
- deaths in acute toxicity test (rats [5]): there is no case wherein the test animals died
- appearance of toxicity (hematological, blood biochemical, histological searches) (beagles): there could not be entirely recognized the appearance of the toxicity
- death case (beagles): There could not be found the death case
- restraint of weight (beagles): There could not be found the death case and the restraint of weight
- reduction of quantity of glycosuria versus diabetic control group (mean) (alloxan diabetic rats; [6]): 1.3 g/day
- reduction of quantity of glycosuria versus diabetic control group (percent) (alloxan diabetic rats; [6]): 47%
- quantity of glycosuria (alloxan diabetic rats; FIG. 2, urine for 12 hours, p.o. once a day for three weeks, TN 100 mg/Kg or TA 88 + NA 20 mg/Kg, diabetic control 1.24 g/12 hours): 0.76 g/12 hours
- quantity of glycosuria versus diabetic control group (in words) (alloxan diabetic rats; FIG. 2, urine for 12 hours, three weeks p.o.): clearly reduced
- urinary volume (in words) (alloxan diabetic rats; FIG. 5, after 12 hours, three weeks p.o.): reduces
- quantity of blood-sugar versus alloxan diabetic control group (in words) (alloxan diabetic rats; three weeks p.o.): reduces significantly the quantity of the blood-sugar
- effect for treatment of alloxan-diabetes (conclusion) (alloxan diabetic rats; three weeks p.o.): unique effect for treatment of alloxan-diabetes
- blood-sugar level compared with diabetic control group (summary) (alloxan diabetic rats; three weeks p.o.): small such as P = 0.05
- quantity of glycosuria compared with diabetic control group (summary) (alloxan diabetic rats; three weeks p.o.): small such as P = 0.05
- urinary volume compared with diabetic control group (summary) (alloxan diabetic rats; three weeks p.o.): small such as P = 0.05
- degree of adiposity (diabetics; 15 diabetics, 8 weeks): there could hardly be found a tolerance with respect to the degree of adiposity
- Blood Sugar (2) FBS (fasting blood sugar) (diabetics; individual patient, after administration, 600 mg/day p.o. (six 100 mg capsules) for 8 weeks): 114 mg% and 126 mg% and 111 mg% and 124 mg% and 122 mg% and 119 mg% and 123 mg% and 104 mg% and 110 mg% and 121 mg% and 118 mg%
- ΔIRI/ΔBS (30 min.) (diabetics; individual patient, after administration, 8 weeks, 30 min. tolerance): 0.39 and 0.31 and 0.38 and 0.36 and 0.41 and 0.33 and 0.42 and 0.45 and 0.44 and 0.35 and 0.49
- Blood Sugar (2) 1 hour (diabetics; individual patient, after administration, 8 weeks, 1 hour after 50 g glucose tolerance): 196 mg% and 193 mg% and 178 mg% and 198 mg% and 221 mg% and 201 mg% and 205 mg% and 174 mg% and 164 mg% and 211 mg% and 214 mg% and 195 mg% and 185 mg% and 197 mg%
- Blood Sugar (2) 2 hours (diabetics; individual patient, after administration, 8 weeks, 2 hours after 50 g glucose tolerance): 185 mg% and 184 mg% and 164 mg% and 195 mg% and 189 mg% and 178 mg% and 186 mg% and 154 mg% and 179 mg% and 181 mg% and 163 mg% and 172 mg% and 190 mg%
- Blood Sugar (2) 3 hours (diabetics; individual patient, after administration, 8 weeks, 3 hours after 50 g glucose tolerance): 136 mg% and 114 mg% and 121 mg% and 179 mg% and 175 mg% and 154 mg% and 171 mg% and 141 mg% and 105 mg% and 172 mg% and 130 mg% and 153 mg%
- Blood Sugar (2) 1 hour, mean (diabetics; mean of 15, after administration, 8 weeks, 1 hour tolerance, before administration 226.5, P<0.05): 193.1 mg%
- Blood Sugar (2) 2 hours, mean (diabetics; mean of 15, after administration, 8 weeks, 2 hours tolerance, before administration 203.7, P<0.05): 179.3 mg%
- Blood Sugar (2) 3 hours, mean (diabetics; mean of 15, after administration, 8 weeks, 3 hours tolerance, before administration 166.1, P<0.05): 145.5 mg%
- ΔIRI/ΔBS (30 min.), mean (diabetics; mean of 15, after administration, 8 weeks, before administration 0.319, P<0.001): 0.394
- Blood Sugar (2) FBS, mean (diabetics; mean of 15 diabetics, after administration, 8 weeks, before administration 128.1, P<0.001): 116.3 mg%

Compound: CC(=O)Oc1c(C)c(C)c2c(c1C)CCC(C)(CCCC(C)CCCC(C)CCCC(C)C)O2 (racemic) [Compound TA, dl-α-tocopheryl acetate]
- restraining effect on quantity of glycosuria (alloxan diabetic rats; FIG. 1, urine for 24 hours): the restraining effect could not be found
- quantity of blood-sugar versus alloxan diabetic control group (in words) (alloxan diabetic rats; three weeks p.o.): there can not be found the differences
- effect for treatment of alloxan-diabetes (conclusion) (alloxan diabetic rats; three weeks p.o.): such effect can not be found
- blood-sugar level compared with diabetic control group (summary) (alloxan diabetic rats; three weeks p.o.): there could not be found the difference
- quantity of glycosuria compared with diabetic control group (summary) (alloxan diabetic rats; three weeks p.o.): there could not be found the difference
- urinary volume compared with diabetic control group (summary) (alloxan diabetic rats; three weeks p.o.): there could not be found the difference

Compound: CCCCNC(=O)NS(=O)(=O)c1ccc(C)cc1 [Tolbutamide]
- number of deaths due to heart-blood vessel disorder, compared with placebo group [1]: 2.5 times

Compound: O=C(O)c1cccnc1 [Compound NA, nicotinic acid]
- restraining effect on quantity of glycosuria (alloxan diabetic rats; FIG. 1, urine for 24 hours): the restraining effect could not be found
- quantity of blood-sugar versus alloxan diabetic control group (in words) (alloxan diabetic rats; three weeks p.o.): there can not be found the differences
- effect for treatment of alloxan-diabetes (conclusion) (alloxan diabetic rats; three weeks p.o.): such effect can not be found
- blood-sugar level compared with diabetic control group (summary) (alloxan diabetic rats; three weeks p.o.): there could not be found the difference
- quantity of glycosuria compared with diabetic control group (summary) (alloxan diabetic rats; three weeks p.o.): there could not be found the difference
- urinary volume compared with diabetic control group (summary) (alloxan diabetic rats; three weeks p.o.): there could not be found the difference
